Assay results as given in patent US20130203718A1 (priority 2010, published 2013).
Entries after “also recorded” stand apart in the source; their conditions may differ.

Biological target: T1, hPRB (Homo sapiens, UniProt P06401)
T1 sequence (P06401 1-933): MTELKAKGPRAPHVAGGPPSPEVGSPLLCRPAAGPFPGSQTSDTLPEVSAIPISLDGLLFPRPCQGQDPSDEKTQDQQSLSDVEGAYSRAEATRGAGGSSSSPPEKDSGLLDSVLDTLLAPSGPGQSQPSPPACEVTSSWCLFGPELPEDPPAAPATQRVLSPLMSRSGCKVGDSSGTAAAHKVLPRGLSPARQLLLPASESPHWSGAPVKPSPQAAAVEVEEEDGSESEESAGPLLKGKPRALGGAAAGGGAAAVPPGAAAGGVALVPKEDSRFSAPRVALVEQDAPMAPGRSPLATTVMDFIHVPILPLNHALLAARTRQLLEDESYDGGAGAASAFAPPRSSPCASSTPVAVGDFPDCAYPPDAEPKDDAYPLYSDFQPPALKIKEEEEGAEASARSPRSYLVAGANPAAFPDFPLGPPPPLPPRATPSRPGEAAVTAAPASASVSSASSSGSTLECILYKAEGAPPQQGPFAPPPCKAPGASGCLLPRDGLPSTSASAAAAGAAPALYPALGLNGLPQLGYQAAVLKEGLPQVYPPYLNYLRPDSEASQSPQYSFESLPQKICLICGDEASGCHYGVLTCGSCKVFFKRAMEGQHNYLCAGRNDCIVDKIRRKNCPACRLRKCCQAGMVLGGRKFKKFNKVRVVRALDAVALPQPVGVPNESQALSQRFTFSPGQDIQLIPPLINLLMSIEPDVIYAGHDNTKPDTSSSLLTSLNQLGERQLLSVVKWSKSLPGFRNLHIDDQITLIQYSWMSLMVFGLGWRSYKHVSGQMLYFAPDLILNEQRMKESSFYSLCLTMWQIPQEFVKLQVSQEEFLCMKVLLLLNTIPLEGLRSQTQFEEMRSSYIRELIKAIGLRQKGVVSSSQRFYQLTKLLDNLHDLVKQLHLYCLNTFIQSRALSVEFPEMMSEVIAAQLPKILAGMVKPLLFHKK
Test: PR transactivation assay (GRE2-Luc) in HEK293T cells transiently expressing hPRB
Assay type: cell-based
Design: expressed in transfected cells; host or cells: HEK 293T
Settings: APRn 1 μM
Outline: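 HEK293T cells transiently transfected by calcium phosphate with human PRB, GRE2-Luc reporter and β-gal control, grown in dextran-charcoal-treated FCS. Luciferase measured in lysates; agonist efficacy at 1 μM compound as ratio of luciferase activities ×100, antagonist efficacy as 100 minus that ratio; mean±SEM of 3-5 experiments.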

[1] = series 2-4, stated for both HEK293T and MDA-MB-231 iPRAB cells, FIGS. 3-8
[2] = series 1 (no C3 substituent), HEK293T, FIG. 1

Row | Structure (SMILES) | hPRB agonist/antagonist character (in words) [1] | hPRB agonist/antagonist character (in words) [2]
1 | CC(=O)[C@H]1CC[C@H]2[C@@H]3CC=C4C[C@@H](F)CC[C@]4(C)[C@H]3CC[C@]12C [APR-16, 3β-Fluoropregn-5-en-20-one] | efficient hPRB antagonists; also recorded: agonist activity of this molecule is completely abolished | 
2 | CC#C[C@]1(O)CCC2C3CC[C@H]4CCCC[C@]4(C)C3CC[C@@]21C (stereo partly drawn) [APR-42, 17α-(1-Propynyl)-5α-androstan-17β-ol] |  | full antagonists
3 | C[C@]12CCC3C(CC=C4C[C@@H](F)CC[C@@H]43)C1CCC2=O (stereo partly drawn) [APR-47, 3β-Fluoro-19-nor-androst-5-en-17-one] | efficient hPRB antagonists | 
4 | CC#C[C@]1(O)CCC2C3CC[C@H]4CCCC[C@@H]4C3CC[C@@]21C (stereo partly drawn) [APR-54, 17α-(1-Propynyl)-19-nor-5-androstan-17β-ol] |  | full antagonists
